Measured values taken from ChEMBL document CHEMBL4190212, “Synthesis, antiprotozoal activity, and chemoinformatic analysis of 2-(methylthio)-1H-benzimidazole-5-carboxamide derivatives: Identification of new selective giardicidal and trichomonicidal compounds” (Eur J Med Chem, 2017).

How the values were obtained:
Entamoeba histolytica [1] = experiment: Antiparasitic activity against trophozoite stage of Entamoeba histolytica HM-1:IMSS after 48 hrs; assay type: functional, organism-based
Trichomonas vaginalis = experiment: Antiparasitic activity against trophozoite stage of Trichomonas vaginalis CNCD 147 after 48 hrs; assay type: functional, organism-based; conditions: CNCD 147, 48 h
Giardia intestinalis [2] = experiment: Antiparasitic activity against trophozoite stage of Giardia intestinalis IMSS:0989:1 after 48 hrs; assay type: functional, organism-based; conditions: Giardia duodenalis, IMSS:0989:1, 48 h
Entamoeba histolytica [3] = experiment: Antiparasitic activity against trophozoite stage of Entamoeba histolytica HM-1:IMSS after 48 hrs by haemocytometric method; assay type: functional, organism-based
Entamoeba histolytica [4] = experiment: Potency index, ratio of metronidazole IC50 to test compound IC50 for trophozoite stage of Entamoeba histolytica HM-1:IMSS; assay type: functional
Giardia intestinalis [5] = experiment: Potency index, ratio of metronidazole IC50 to test compound IC50 for trophozoite stage of Giardia intestinalis IMSS:0989:1; assay type: functional, Giardia duodenalis

SMILES | IC50 (Entamoeba histolytica [1]) [nM] | IC50 (Trichomonas vaginalis) [nM] | IC50 (Giardia intestinalis [2]) [nM] | IC50 (Entamoeba histolytica [3]) [nM] | Ratio IC50 (Entamoeba histolytica [4]) | Ratio IC50 (Giardia intestinalis [5])
CSc1nc2cc(C(=O)Nc3cccc(Cl)c3)c(Cl)cc2[nH]1 | 51 | 162 | 1110 | – | – | –
CSc1nc2cc(C(=O)Nc3ccccn3)c(Cl)cc2[nH]1 | 44 | 67.6 | 77 | – | – | –
FC(F)(F)C(F)(F)c1nc2c(Br)c(Br)c(Br)c(Br)c2[nH]1 | – | – | – | 229 | – | –
CSc1nc2cc(C(=O)Nc3cccc(C)n3)c(Cl)cc2[nH]1 | 81.3 | 111 | 135 | – | – | –
CSc1nc2cc(C(=O)Nc3cccc(Cl)n3)c(Cl)cc2n1C | 40.8 | 368 | 12.2 | – | – | –
CSc1nc2cc(C(=O)Nc3ccccn3)c(Cl)cc2n1C | 34.5 | 12 | 346 | – | – | –
CSc1nc2cc(C(=O)Nc3cccc(C)n3)c(Cl)cc2n1C | 41.8 | 28.8 | 15.8 | – | – | –
CSc1nc2cc(C(=O)Nc3cccc(Cl)n3)c(Cl)cc2[nH]1 | 36.9 | 128 | 454 | – | – | –
CSc1nc2cc(C(=O)Nc3cccc(C)c3)c(Cl)cc2[nH]1 | 120 | 515 | 250 | – | – | –

Now from value to compound, other results behind:

IC50 (Entamoeba histolytica [1]) [nM] | IC50 (Trichomonas vaginalis) [nM] | IC50 (Giardia intestinalis [2]) [nM] | IC50 (Entamoeba histolytica [3]) [nM] | SMILES | Ratio IC50 (Entamoeba histolytica [4]) | Ratio IC50 (Giardia intestinalis [5])
52 | 120 | 72.5 | – | CSc1nc2cc(C(=O)Nc3ccccc3)c(Cl)cc2[nH]1 | – | –
– | – | – | 13800 | FC(F)(F)c1nc2c(Br)c(Br)c(Br)cc2[nH]1 | – | –
48.5 | 28.3 | 56.6 | – | CSc1nc2cc(C(=O)NNC(=O)OC(C)(C)C)c(Cl)cc2n1C | – | –
9.2 | 41 | 7.9 | – | CSc1nc2cc(C(=O)Nc3ccc([N+](=O)[O-])cn3)c(Cl)cc2n1C | 41 | 155
– | – | – | 437 | FC(F)(F)c1nc2cc(Br)c(Br)cc2[nH]1 | – | –
26.6 | 13.2 | 29.2 | – | CSc1nc2cc(C(=O)N/N=C/c3ccc([N+](=O)[O-])o3)c(Cl)cc2n1C | – | –
– | – | – | 1550 | O=[N+]([O-])c1cc2nc(C(F)(F)F)[nH]c2cc1[N+](=O)[O-] | – | –
